Tested on: Helraiser transposase, wild type (WT), SEQ ID NO: 1, consensus Helibat1 Helitron transposase from the bat Myotis lucifugus
Test: Colorimetric ATPase assay (ATP hydrolysis, malachite green)
Assay type: biochemical
Settings: purified transposase; 50 mM HEPES pH 7.5, 100 mM NaCl, 1 mM DTT, 2 mM MgCl2, 37° C; ATP 0.0078 to 1 mM
Protocol: Protein Expression and Purification
Point mutations were made using the QuikChange site-directed mutagenesis method (Agilent). Baculovirus production and protein expression were performed by the Protein Expression Laboratory at the National Cancer Institute as follows:
Cell pellets were resuspended in Nickel affinity column binding buffer (20 mM NaH2PO4 pH 7.4, 500 mM NaCl, 50 mM imidazole, 1 mM TCEP). All subsequent steps were performed at 4° C. Lysis was done by incubating the cells on ice for 30 minutes, then sonication with a Misonix Sonicator 3000 (5×20-sec pulses with 3 minute pause at 82 Watts). […]
ATP hydrolysis was analyzed by measuring the formation of free phosphate (Pi) as a function of time using procedures adapted from Baykov et al. (Baykov A A, Evtushenko O A, Avaeva S M. A malachite green procedure for orthophosphate determination and its use in alkaline phosphatase-based enzyme immunoassay. Anal Biochem 171, 266-270 (1988)). […] An aliquot (150 μl) of a 1 mM malachite green stock solution was added to each well, and the absorbance at 650 nm was measured using a Molecular Devices Spectramax M5 microplate reader. The amount of phosphate released was calculated by comparison to a standard curve generated using KH2PO4. […]

Structure (SMILES): Nc1ncnc2c1ncn2[C@@H]1O[C@H](COP(=O)(O)OP(=O)(O)OP(=O)(O)O)[C@@H](O)[C@H]1O [ATP]
- Km: 46 µM
- kcat (ATP hydrolysis): 6.8 ± 0.11 s⁻¹

From patent US11396664B2, “Replicative transposon system” (Max-Delbrück-Centrum für Molekulare Medizin in der …, priority 2016, dated 2022)
